Measured values as given in paper PMC6271870, “Study on the Synthesis, Biological Activity and Spectroscopy of Naphthalimide-Diamine Conjugates” (Molecules, 2014).

How the values were obtained:
[1] = test system: human normal hepatocyte QSG-7701; assay: MTT assay, QSG-7701 cells; assay type: cell-based; conditions: QSG7701, aminoguanidine present, mean ± SD of three determinations, max 50 µM tested
Description: (§1) The cytotoxicities of the novel conjugates were assessed in vitro by the MTT assay in the presence of aminoguanidine (an inhibitor of amine oxidase) against three cell lines, human leukemia K562, cancer of colon HCT116 and human normal hepatocyte QSG-7701 [34]. […] Thus, compound 7f was selected for further investigation. Cell lines, K562, 7721 and HCT116 were obtained from American Type Culture Collection (ATCC, Shanghai, China). Cells were cultured in RPMI1640, supplemented with 10% heat-inactivated fetal calf serum (FCS), antibiotics (penicillin, 100 units/mL; streptomycin sulfate, 100 μg/mL) at 37 °C, in an atmosphere of 95% air and 5% CO2 under humidified conditions. Aminoguanidine (1 mM) was added as an inhibitor of amine oxidase derived from FCS and had no effect on the various parameters of the cell measured in this study. In addition, exponentially growing HCT116 or 7721 cells were seeded into 96-well plates at 5000 cells/well and allowed to attach overnight, and then 100 μL of MTT (1 mg/mL) was added. After incubation for 4 h at 37 °C, the MTT solution was removed and the remaining formazan crystals were dissolved with 150 μL DMSO in each well. The absorbance of each well was then read at 570 nm.

HepG2 cells = assay: Apoptosis by Hoechst 33342 staining, laser scanning confocal microscope; assay type: cell-based; conditions: HepG2, 20 μM, 48 h, 200 cells counted; control less than five percent
Description: Apoptosis, or namely programmed cell death, can be triggered by several stimuli. Both naphthalimides and polyamine derivatives could trigger cell apoptosis. In order to determine whether the antitumor-proliferative effect of compound 7f was associated with cell apoptosis, the HepG2 cell apoptosis was detected by the staining of DNA with Hoechst 33342, and the apoptotic cells were counted by selecting 200 cells randomly (Figure 4). The apoptotic bodies were observed clearly in 7f-treated groups by laser scanning confocal microscope. 7f could trigger apoptosis in a dose-dependent manner with the 47.0% apoptotic ratio of 7f at 20 μM compared with the less than five percent in the control group. Exponentially growing HepG2 cells were seeded in 96 well plates (6 × 10^4 cells/well) and treated with indicated concentrations of 7f. After incubated for 48 h, cells were washed three times with PBS, and finally stained with 10 μM Hoechst 33342 in the dark at 37 °C for 20 min. They were detected by laser scanning confocal microscope and the apoptotic cells were count by selecting 200 cells randomly.

cancer of colon HCT116 = assay: MTT assay, HCT116 cells; assay type: cell-based; conditions: Homo sapiens, HCT-116, aminoguanidine present, mean ± SD of three determinations, max 50 µM tested
Description: as §1

herring sperm DNA = assay: Fluorescence quenching of compound by DNA (Stern-Volmer, binding constant, thermodynamics); conditions: 7f quenched by DNA
Description: (§2) The Stern–Volmer equation is the following: F0/F = 1+ KSVc = 1+ […] where F0 and F are the ﬂuorescence intensities in the absence and presence of quencher (DNA for compound 7f or compound 7f for DNA-EB, respectively), KSV is the Stern-Volmer quenching constant, [c] is the concentration of DNA (or compound 7f), Kq is the biomolecule quenching rate constant and Kq = KSV/τ0. τ0 is the average lifetime of the molecule without any quencher and the ﬂuorescence lifetime of the biopolymer is 10^−8 s. The Stern–Volmer plots of F0/F versus [c] at the three temperatures were shown in Figure 9 and Figure 10, and the calculated KSV and Kq values were presented in Table 2 and Table 3.
(§3) When small molecules bind independently to a set of equivalent sites in a macromolecule, the binding constant (Kb) can be determined by the following equation [40, 52]: log[1/c] = log [F/(F0 − F)] + logKb(3) where Kb denotes the binding constant for interaction of naphthalimide–DNA, and F0, F, [c] have the same meanings as in Equation (2).
There are several acting forces between a small organic molecule and biomacromolecules, such as hydrophobic force, hydrogen bond, van der Waals force, electrostatic interactions, etc.
Preparation of sample is the same as that of UV-Vis measurement. Fluorescence wavelengths and intensity areas of samples were measured at following conditions: EX = 345 nm, EM = 355~600 nm temperature: 298, 303 and 310 K.

herring sperm DNA-EB = assay: Fluorescence quenching of DNA-EB complex by compound (EB displacement); assay type: binding; conditions: DNA-EB quenched by 7f
Description: Ethidium bromide (EB) is a well known DNA intercalator, which is often used as a spectral probe to establish the mode of binding of small molecules to double-helical DNA [41]. The ﬂuorescence of EB increases after binding with DNA due to intercalation. Like EB, if naphthalimides intercalate into the helix of DNA, it would compete with EB for its intercalation sites in DNA, and the displacement of EB from the DNA–EB complex leads to a signiﬁcant decrease in the ﬂuorescence intensity of the DNA-EB complex. Therefore, herring sperm DNA-EB complex in the presence of increasing concentrations of naphthalimide-diamine conjugate 7f was also measured.
as §2, §3
There are several acting forces between a small organic molecule and biomacromolecules, such as hydrophobic force, hydrogen bond, van der Waals force, electrostatic interactions, etc. […]

IC50 (cancer of colon HCT116): 5.45 ± 1.71 µM
KSV (Stern-Volmer quenching constant) (herring sperm DNA; 298 K): 5567 L/mol
KSV (Stern-Volmer quenching constant) (herring sperm DNA; 303 K): 4789 L/mol
KSV (Stern-Volmer quenching constant) (herring sperm DNA; 310 K): 3651 L/mol
KSV (Stern-Volmer quenching constant) (herring sperm DNA-EB; 298 K): 5028 L/mol
KSV (Stern-Volmer quenching constant) (herring sperm DNA-EB; 303 K): 4564 L/mol
KSV (Stern-Volmer quenching constant) (herring sperm DNA-EB; 310 K): 4176 L/mol
SMILES: Cl.Cl.NCCCCNCCCN1C(=O)c2cccc3cccc(c23)C1=O [Compound 7f, 2-[3-(4-Aminobutylamino)propyl]1H-benz-[de]isoquinoline-1,3(2H)-dione dihydrochloride]
IC50 [1]: 19.7 ± 3.42 µM
apoptotic ratio (HepG2 cells): 47.0%
